Data published in US7169778B2, “Pteridinones as kinase inhibitors” (Warner-Lambert Company, priority 1999, dated 2007).

Legend:
cdk4/cyclin D1 complex = cdk4/cyclin D1 complex (Homo sapiens, UniProt P11802); experiment: Cyclin-dependent kinase 4 (CDK4) assay; assay type: biochemical; conditions: cyclin dependent kinase 4/cyclin D1 complex; read-out: CDK4D IC50
Method: Enzyme assays for IC50 determinations (Table 1) and kinetic evaluation were performed in 96-well filter plates (Millipore MADVN6550) The total volume was 0.1 mL containing a final concentration of 20 mM TRIS (tris[hydroxmethyl]aminomethane), at pH 7.4, 50 mM NaCl, 1 mM dithiothreitol, 10 mM mgCl2, 25 μM ATP containing 0.25 μCi of [^32P]ATP, 20 ng of cdk4/cyclin D1 complex, 1 μg of retinoblastoma and appropriate dilutions of a compound of the present invention. All components except the ATP were added to the wells, and the plate was placed on a plate mixer for 2 minutes. The reaction was started by adding [^32P]ATP and the plate incubated at 25° C. for 15 minutes. The reaction was terminated by addition of 0.1 mL of 20% TCA. The plate was kept at 4° C. for at least 1 hour to allow the substrate to precipitate. The wells were then washed five times with 0.2 mL of 10% TCA and ^32p incorporation determined with a beta plate counter (Wallac Inc., Gaithersburg, Md.).

[1] = molecular target: N-terminal truncated Wee 1 (Homo sapiens, UniProt P30291); experiment: Wee 1 OY kinase assay; assay type: biochemical; conditions: read-out: WEE1OY IC50
Chain of N-terminal truncated Wee 1 (P30291 299-569 limits assumed): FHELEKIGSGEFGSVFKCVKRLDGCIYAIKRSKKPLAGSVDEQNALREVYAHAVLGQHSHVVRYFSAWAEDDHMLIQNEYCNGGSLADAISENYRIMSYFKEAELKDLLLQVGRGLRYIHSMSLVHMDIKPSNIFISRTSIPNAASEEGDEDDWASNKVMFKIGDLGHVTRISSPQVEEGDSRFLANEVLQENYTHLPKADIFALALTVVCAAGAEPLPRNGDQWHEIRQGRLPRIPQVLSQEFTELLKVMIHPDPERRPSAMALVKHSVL
Method: These kinase assays are carried out on 96-well filter plates (Millpore, Cat. MADPN0B50) in 50 μL kinase assay buffer (50 mM Tris, pH 8.0, 10 mM NaCl, 10 mM MgCl2, 10 μM ATP with 0.25 μCi [r-32P]ATP, 1 mM DTT) with 0.1 μg purified N-terminal truncated Wee 1 and 6 μg poly(Orn, Tyr)4:1 (Sigma, P4534). The assay is started by adding ATP and incubating at room temperature for 20 minutes with shaking. The reactions are terminated by adding 50 μL ice-cold 20% TCA (trichloracetic acid) with 0.1 M sodium pyrophosphate and shaking the resultant mixture for 1 minute. The plate is then incubated at 4° C. for 1 hour to allow protein to precipitate. These plates are then washed 5 times with 200 μL ice-cold 10% TCA and with 0.1 M sodium pyrophosphate per wash. Twenty-five microliters scintillation liquid is then added to each well, and the plate is counted in Wallac's MicroBeta counter 1450.

C-src kinase = C-src kinase (Homo sapiens, UniProt P12931); experiment: C-src kinase assay; assay type: biochemical
Chain of C-src kinase (P12931 whole entry, the tested form may be a part): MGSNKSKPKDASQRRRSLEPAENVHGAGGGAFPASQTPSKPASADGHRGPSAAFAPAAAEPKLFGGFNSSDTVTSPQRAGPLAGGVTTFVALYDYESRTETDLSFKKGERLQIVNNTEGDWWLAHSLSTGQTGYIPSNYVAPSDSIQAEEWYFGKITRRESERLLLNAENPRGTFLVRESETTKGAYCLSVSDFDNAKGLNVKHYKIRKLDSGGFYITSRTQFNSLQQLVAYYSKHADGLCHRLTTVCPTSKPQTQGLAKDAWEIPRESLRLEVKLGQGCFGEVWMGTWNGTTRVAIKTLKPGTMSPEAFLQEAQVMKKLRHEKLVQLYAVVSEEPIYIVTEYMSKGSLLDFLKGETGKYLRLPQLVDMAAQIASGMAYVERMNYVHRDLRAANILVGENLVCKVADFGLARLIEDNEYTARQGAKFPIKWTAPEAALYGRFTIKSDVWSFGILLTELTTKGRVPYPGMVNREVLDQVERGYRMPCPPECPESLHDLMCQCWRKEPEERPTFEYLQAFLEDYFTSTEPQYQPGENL
Method: C-src kinase was purified from baculovirus infected insect cell lysates using an antipeptide monoclonal antibody directed against the N-terminal amino acids (amino acids 2–17) of c-src. The antibody, covalently linked to 0.65 μm latex beads, was added to a suspension of insect cell lysis buffer comprised of 150 mM NaCl, 50 mM Tris pH 7.5, 1 mM DTT, 1% NP-40, 2 mM EGTA, 1 mM sodium vanadate, 1 mM PMSF, 1 μg/mL each of leupeptin, pepstatin, and aprotinin. Insect cell lysate containing c-src protein was incubated with these beads for 3 to 4 hours at 4° C. with rotation. At the end of the lysate incubation, the beads were rinsed three times in lysis buffer, resuspended in lysis buffer containing 10% glycerol, and frozen. These latex beads were thawed, rinsed three times in assay buffer (40 mM Tris, pH 7.5, 5 mM mgCl2) and suspended in the same buffer. In a Millipore 96-well plate with a 0.65 μm polyvinylidine membrane bottom were added the reaction components: 10 μL C-src beads, 10 μL of 2.5 mg/mL poly GluTyr substrate, 5 μM ATP containing 0.2 μCi labeled ^32P-ATP, 5 μL DMSO containing inhibitors or as a solvent control, and buffer to make the final volume 125 μL. The reaction was started at room temperature by addition of the ATP and quenched 10 minutes later by the addition of 125 μL of 30% TCA, 0.1 M sodium pyrophosphate for 5 minutes on ice. The plate was then filtered and the wells washed with two […] aliquots of 15% TCA, 0.1 M pyrophosphate. The filters were then punched, counted in a liquid scintillation counter, and the data examined for inhibitory activity in comparison to a known inhibitor such as erbstatin. The method is also described in J. Med. Chem., 1994;37:598–609.

cdk2/cyclinE = cdk2/cyclinE (Homo sapiens, UniProt P24941); experiment: Cyclin-dependent kinase assay cdk2/cyclinE; assay type: biochemical; conditions: cyclin dependent kinase 2/cyclin E complex; read-out: CDK2E IC50
Method: (§1) All components except the ATP were added to the wells, and the plate was placed on a plate mixer for 2 minutes. The reaction was begun by addition of [^32P]ATP, and the plate was incubated at 25° C. for 15 minutes. The reaction was terminated by addition of 0.1 mL of 20% TCA. The plate was kept at 4° C. for at least 1 hour to allow the substrate to precipitate. The wells were then washed five times with 0.2 mL of 10% TCA and ^32P incorporation determined using a beta plate counter (Wallac Inc., Gaithersburg, Md.).

cdk2/cyclinA = cdk2/cyclinA (Homo sapiens, UniProt P24941); experiment: Cyclin-dependent kinase assay cdk2/cyclinA; assay type: biochemical; conditions: cyclin dependent kinase 2/cyclin A complex; read-out: CDK2A IC50
Method: as §1

[2] = molecular target: T1, mouse PDGF-β receptor tyrosine kinase (Mus musculus, UniProt P05622); experiment: PDGF receptor tyrosine kinase assay; assay type: biochemical
T1 construct: amplify a fragment of DNA that codes for the intracellular tyrosine kinase domain; made in house; host or cells: SF9 insect cells (baculovirus)
T1 sequence (P05622 599-961 limits assumed): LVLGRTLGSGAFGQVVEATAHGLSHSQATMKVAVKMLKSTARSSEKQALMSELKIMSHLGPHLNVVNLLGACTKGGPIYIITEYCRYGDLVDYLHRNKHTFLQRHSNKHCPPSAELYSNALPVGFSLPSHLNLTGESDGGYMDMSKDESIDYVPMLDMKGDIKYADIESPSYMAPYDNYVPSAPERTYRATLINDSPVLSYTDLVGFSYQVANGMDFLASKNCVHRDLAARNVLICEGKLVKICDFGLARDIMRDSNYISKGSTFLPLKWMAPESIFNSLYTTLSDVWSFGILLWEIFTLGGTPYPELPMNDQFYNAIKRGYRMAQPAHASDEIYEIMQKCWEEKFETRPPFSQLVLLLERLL
Excerpt: (§2) Full-length cDNAs for the mouse PDGF-β and human FGF-1 (flg) receptor tyrosine kinases were obtained from J. Escobedo and prepared as described in J. Biol. Chem., 1991;262:1482–1487. PCR primers were designed to amplify a fragment of DNA that codes for the intracellular tyrosine kinase domain. The fragment was inserted into a baculovirus vector, cotransfected with AcMNPV DNA, and the recombinant virus isolated. SF9 insect cells were infected with the virus to overexpress the protein, and the cell lysate was used for the assay. Assays were performed in 96-well plates (100 μL/incubation/well), and conditions were optimized to measure the incorporation of ^32P from γ^32P-ATP into a glutamate-tyrosine co-polymer substrate. Briefly, to each well was added 82.5 μL of incubation buffer containing 25 mM Hepes (pH 7.0), 150 mM NaCl, 0.1% Triton X-100, 0.2 mM PMSF, 0.2 mM Na3VO4, 10 mM MnCl2, and 750 μg/mL of Poly (4:1) glutamate-tyrosine followed by 2.5 μL of inhibitor and 5 μL of enzyme lysate (7.5 μg/μL FGF-TK or 6.0 μg/μL PDGF-TK) to initiate the reaction. Following a 10 minute incubation at 25° C., […] of γ^32P-ATP (0.4 μCi plus 50 μM ATP) was added to each well, and samples were incubated for an additional 10 minutes at 25° C. The reaction was terminated by the addition of 100 μL of 30% TCA containing 20 mM sodium pyrophosphate and precipitation of material onto glass fiber mats (Wallac). Filters were washed three times with 15% TCA containing 100 mM sodium pyrophosphate, and the radioactivity retained on the filters counted in a Wallac 1250 Betaplate reader. Nonspecific activity was defined as radioactivity retained on the filters following incubation of samples with buffer alone (no enzyme). Specific enzymatic activity (enzyme plus buffer) was defined as total activity minus nonspecific activity. The concentration of a compound that inhibited specific activity by 50% (IC50) was determined based on the inhibition curve.

[3] = molecular target: T2, human FGF-1 (flg) receptor tyrosine kinase (Homo sapiens, UniProt P11362); experiment: FGF receptor tyrosine kinase assay; assay type: biochemical; conditions: read-out: FGF % @ concentration; for inhibition at 0.5 µM: @ 0.5 (unit μm); for inhibition at 5 µM: @ 5 (unit μm)
T2 construct: amplify a fragment of DNA that codes for the intracellular tyrosine kinase domain; made in house; host or cells: SF9 insect cells (baculovirus)
T2 sequence (P11362 478-767 limits assumed): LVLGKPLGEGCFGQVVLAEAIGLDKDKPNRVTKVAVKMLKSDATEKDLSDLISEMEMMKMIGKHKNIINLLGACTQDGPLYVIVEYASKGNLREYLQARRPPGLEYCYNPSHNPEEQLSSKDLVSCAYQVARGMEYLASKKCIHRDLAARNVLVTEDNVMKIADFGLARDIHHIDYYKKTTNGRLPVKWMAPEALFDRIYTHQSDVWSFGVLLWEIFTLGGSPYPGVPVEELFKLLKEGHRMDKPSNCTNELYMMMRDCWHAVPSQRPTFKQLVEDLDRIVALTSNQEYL
Excerpt: as §2

cdc2/cyclinB = cdc2/cyclinB (Homo sapiens, UniProt P06493); experiment: Cyclin-dependent kinase assay cdc2/cyclinB; assay type: biochemical; conditions: cyclin dependent kinase 1/cyclin B complex; read-out: CDK1B IC50
Chain of cdc2/cyclinB (P06493 whole entry, species assumed): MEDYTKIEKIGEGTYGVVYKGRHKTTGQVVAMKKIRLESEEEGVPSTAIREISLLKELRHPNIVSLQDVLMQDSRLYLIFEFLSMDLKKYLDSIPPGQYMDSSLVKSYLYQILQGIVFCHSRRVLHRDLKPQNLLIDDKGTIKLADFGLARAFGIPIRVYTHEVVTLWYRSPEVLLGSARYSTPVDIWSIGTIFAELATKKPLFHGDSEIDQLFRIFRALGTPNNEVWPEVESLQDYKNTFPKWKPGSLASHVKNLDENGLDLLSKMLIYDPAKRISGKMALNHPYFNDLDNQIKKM
Chain of cdc2/cyclinB (P14635 whole entry partner, species assumed): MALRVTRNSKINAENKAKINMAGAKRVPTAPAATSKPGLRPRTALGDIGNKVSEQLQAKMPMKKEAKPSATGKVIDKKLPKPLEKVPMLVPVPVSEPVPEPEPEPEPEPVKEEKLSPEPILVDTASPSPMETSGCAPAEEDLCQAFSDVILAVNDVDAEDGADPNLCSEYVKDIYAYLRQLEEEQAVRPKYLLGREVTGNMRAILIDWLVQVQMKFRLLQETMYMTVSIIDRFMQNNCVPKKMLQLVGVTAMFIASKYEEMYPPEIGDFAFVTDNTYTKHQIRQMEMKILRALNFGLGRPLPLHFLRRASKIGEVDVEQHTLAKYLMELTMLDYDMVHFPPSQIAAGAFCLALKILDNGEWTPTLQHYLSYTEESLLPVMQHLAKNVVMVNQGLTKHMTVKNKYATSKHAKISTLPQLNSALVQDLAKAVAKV
Method: as §1

Chain of cdk4/cyclin D1 complex (P11802 whole entry, species assumed): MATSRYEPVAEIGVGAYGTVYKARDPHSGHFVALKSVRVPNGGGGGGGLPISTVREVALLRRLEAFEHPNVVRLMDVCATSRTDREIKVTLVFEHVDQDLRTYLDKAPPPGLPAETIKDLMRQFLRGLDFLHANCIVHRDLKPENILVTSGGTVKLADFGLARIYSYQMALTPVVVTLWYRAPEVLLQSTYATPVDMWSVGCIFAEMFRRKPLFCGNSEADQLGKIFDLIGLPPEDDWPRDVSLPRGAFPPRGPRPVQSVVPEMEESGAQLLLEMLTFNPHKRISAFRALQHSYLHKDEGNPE
Chain of cdk4/cyclin D1 complex (P24385 whole entry partner, species assumed): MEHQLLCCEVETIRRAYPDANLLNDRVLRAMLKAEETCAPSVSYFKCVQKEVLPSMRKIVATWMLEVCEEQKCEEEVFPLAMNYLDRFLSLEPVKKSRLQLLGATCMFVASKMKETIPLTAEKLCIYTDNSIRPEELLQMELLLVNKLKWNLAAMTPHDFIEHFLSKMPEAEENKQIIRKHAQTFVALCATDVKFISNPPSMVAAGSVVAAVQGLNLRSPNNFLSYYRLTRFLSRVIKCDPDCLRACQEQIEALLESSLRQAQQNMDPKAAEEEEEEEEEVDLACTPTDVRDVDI

Compound | IC50 (cdk4/cyclin D1 complex) [nM] | IC50 [1] [nM] | IC50 (C-src kinase) [nM] | melting point [°C] | IC50 (cdk2/cyclinE) [nM] | IC50 (cdk2/cyclinA) [nM] | IC50 [2] [nM] | inhibition at 0.5 µM [3] [%] | IC50 (cdc2/cyclinB) [nM] | PDGF % @ concentration ([2]; @ 5 (unit μm)) [% @ 5] | inhibition at 5 µM [3] [%] | inhibition at 50 µM ([3]; @ 50 (unit μm)) [%]
NC1CCN(c2ccc(Nc3ncc4ncc(=O)n(C5CCCC5)c4n3)cc2)C1 (centres unmarked) [Compound 17, 2-[[4-(3-Aminopyrrolidin-1-yl)phenyl]amino]-8-cyclopentyl-8H-pteridin-7-one] | 43.5 |  |  |  | 1900 | 94 | 2190 |  | 400 |  |  | 
CC(C)(C)OC(=O)N1CCN(c2ccc(Nc3ncc4ncc(=O)n(C5CCCC5)c4n3)cc2)CC1 [Compound 52, 2-[[4-[4(tert-Butoxycarbonyl)piperazin-1-yl]phenyl]amino]-8-cyclopentyl-8H-pteridin-7-one] | 1800 |  | > 50000 | 215 to 217 | 4500 | 530 |  |  |  |  |  | 
O=c1cnc2cnc(Nc3ccncc3)nc2n1C1CCCC1 [Compound 11, 8-Cyclopentyl-2-[(pyridin-4-yl)amino]-8H-pteridin-7-one] | 1250 | > 50000 | 11000 | 236 to 238 | 50 | 36 | > 50000 |  | 354 |  | 31 | 

Other lines, results leading:

IC50 (cdk4/cyclin D1 complex) [nM] | IC50 [1] [nM] | IC50 (C-src kinase) [nM] | melting point [°C] | IC50 (cdk2/cyclinE) [nM] | IC50 (cdk2/cyclinA) [nM] | IC50 [2] [nM] | inhibition at 0.5 µM [3] [%] | IC50 (cdc2/cyclinB) [nM] | PDGF % @ concentration ([2]; @ 5 (unit μm)) [% @ 5] | inhibition at 5 µM [3] [%] | inhibition at 50 µM ([3]; @ 50 (unit μm)) [%] | Compound
41 | > 50000 | 3350 | 208 to 211 | 950 | 260 | 6000 | 41 |  |  |  |  | CN1CCN(c2ccc(Nc3ncc4ncc(=O)n(C5CCCC5)c4n3)cc2)CC1 [Compound 8, 8-Cyclopentyl-2-[[4-(4methylpiperazin-1-yl)phenyl]amino]-8H-pteridin-7-one]
47 | > 50000 | 3000 | 210 to 211 | 41000 | 2780 |  | 41 |  | 59 |  |  | Cc1nc2cnc(Nc3ccc(N4CCN(C)CC4)cc3)nc2n(C2CCCC2)c1=O [Compound 9, 8-Cyclopentyl-6methyl-2-[[4-(4-methylpiperazin-1-yl)phenyl]amino]-8H-pteridin-7-one]
60 | > 50000 | 8470 | 182 to 184 | 650 | 64 | 12000 |  |  |  | 33 |  | O=c1cnc2cnc(Nc3ccc(N4CCOCC4)cc3)nc2n1C1CCCC1 [Compound 7, 8-Cyclopentyl-2-[[4-(morpholin-4-yl)phenyl]amino]-8H-pteridin-7-one]
440 | > 50000 | 34000 | 230 to 234 | 8000 | 1840 | > 50000 |  |  |  |  | 57 | Cc1nc2cnc(Nc3ccc(N4CCOCC4)cc3)nc2n(C2CCCC2)c1=O [Compound 10, 8-Cyclopentyl-6-methyl-2-[[4-(morpholin-4-yl)phenyl]amino]-8H-pteridin-7-one]
7 |  | 3300 |  | 610 | 180 |  |  | 750 |  |  |  | O=c1cnc2cnc(Nc3ccc(N4CCNCC4)cc3)nc2n1C1CCCC1 [Compound 16, 8-Cyclopentyl-2-[[4-(piperazin-1-yl)phenyl]amino]-8H-pteridin-7-one]
